The source of these data is publication PMC7876048, “Mutant-selective degradation by BRAF-targeting PROTACs” (Nature Communications, 2021).

In experiment [1] the target is T1, BRAF^G469A (SK-MEL-246 cells, Class 2) (Homo sapiens, UniProt P15056, G469A).
T1 construct: endogenous in cells; host or cells: SK-MEL-246
Nature of the experiment: BRAF degradation by immunoblot in SK-MEL-246 cells. Type of experiment: cell-based. As for the experimental part: (§1) Cells were plated in 6 well dishes (5 × 10^5–8 × 10^5 cells) and allowed to attach overnight. […] The plates were then placed on ice and washed 1x with chilled PBS and lysed in buffer containing 25 mM Tris-HCl [pH 7.4], 0.25% sodium deoxycholate, 150 mM NaCl, 1% Triton X-100, supplemented with protease inhibitors (1x Roche protease inhibitor cocktail) and phosphatase inhibitors (10 mM NaF, 1 mM Na3OV4, and 20 mM β-glycerophosphate). Lysates were then cleared at 21,000 g for 10 min at 4 °C. Protein concentrations of the supernatants were then quantified using a Pierce BCA Protein Assay. 12–40 µg of protein were separated using a gradient (4–20%) Criterion TGX precast gel and transferred unto a nitrocellulose membrane. The membranes were then blocked in 5% non-fat milk in TBST (Tris-buffered Saline with Tween 20) for 1 h before probing with the indicated primary antibody overnight. Membranes were imaged using Bio-Rad Image Lab software using ECL prime detection reagent (GE Healthcare, RPN2232 or ThermoScientific, 34095).
(§2) Western blot data was quantified by using the band feature in Image Lab, and values were averaged and analyzed in GraphPad Prism. DC50 and DMAX values were fitted using a three parameter [inhibitor] versus response and reported directly from the Prism output. Mean ± SD and unpaired t-tests were performed in GraphPad Prism.

The target of experiment [2] is T2, BRAF^G466V (CAL-12-T cells, homozygous, Class 3) (Homo sapiens, UniProt P15056, G466V).
T2 construct: endogenous in cells; host or cells: CAL-12-T
Kind of experiment: BRAF degradation by immunoblot in CAL-12-T cells. Type of experiment: cell-based. As for the experimental part:
as §1, §2

Experiment [3] deals with SK-MEL-246 cells (Class 2, BRAF^G469A). Nature of the experiment: Cell proliferation (MTS) assay. To be noted: 120 h, 5-day treatment, read-out: EC50, cell growth. Type of experiment: cell-based.
The next experiment has as its target T3, BRAF^WT (OVCAR-8 cells) (Homo sapiens, UniProt P15056).
T3 construct: endogenous in cells; host or cells: OVCAR-8
Kind of experiment: BRAF^WT degradation by immunoblot in OVCAR-8 cells. Format: cell-based. As for the experimental part: as §1, §2

The target of another experiment is BRAF V600E (Homo sapiens, UniProt P15056, V600E). Kind of experiment: Elisa kinase inhibition assay (Carna Biosciences). Format: biochemical. Set-up: purchased Carna Biosciences. To be noted: Km ATP, duplicate. The method, then: Kinase assays were performed by Carna Biosciences by their protocol in duplicate using Km amounts of ATP calculated for each kinase.

The target of the next experiment is T4, BRAF (V600D) (Homo sapiens, UniProt P15056, V600D).
T4 construct: purchased Reaction Biology Corps
Kind of experiment: Radiolabeled kinase assay (Reaction Biology). Format: biochemical. As for the experimental part: (§3) Kinase assays were performed by Reaction Biology Corps by their protocol in duplicate using Km amounts of ATP calculated for each kinase.

Another experiment deals with T5, ARAF (Homo sapiens, UniProt P10398).
T5 construct: purchased Reaction Biology Corps
Nature of the experiment: Radiolabeled kinase assay (Reaction Biology). Type of experiment: biochemical. As for the experimental part:
as §3

A further experiment addresses CRAF (Homo sapiens, UniProt P04049). Nature of the experiment: Radiolabeled kinase assay (Reaction Biology). Format: biochemical. The method, then: as §3
In a further experiment the target is T6, BRAF (V600A) (Homo sapiens, UniProt P15056, V600A).
T6 construct: purchased Reaction Biology Corps
Kind of experiment: Radiolabeled kinase assay (Reaction Biology). Format: biochemical. As for the experimental part: as §3

Another experiment concerns the target T7, BRAF (K601E) (Homo sapiens, UniProt P15056, K601E).
T7 construct: purchased Reaction Biology Corps
Nature of the experiment: Radiolabeled kinase assay (Reaction Biology). Format: biochemical. As for the experimental part: as §3

The target of the next experiment is T8, BRAF (L597V) (Homo sapiens, UniProt P15056, L597V).
T8 construct: purchased Reaction Biology Corps
Nature of the experiment: Radiolabeled kinase assay (Reaction Biology). Type of experiment: biochemical. The method, then:
as §3

A further experiment has as its target T9, BRAF (BRAF^WT) (Homo sapiens, UniProt P15056).
T9 construct: purchased Reaction Biology Corps
Nature of the experiment: Radiolabeled kinase assay (Reaction Biology). Format: biochemical. As for the experimental part:
as §3

For another experiment, the target named is T10, BRAF (V600K) (Homo sapiens, UniProt P15056, V600K).
T10 construct: purchased Reaction Biology Corps
Nature of the experiment: Radiolabeled kinase assay (Reaction Biology). Format: biochemical. As for the experimental part: as §3

Another experiment has as its target T11, BRAF (G469A) (Homo sapiens, UniProt P15056, G469A).
T11 construct: purchased Reaction Biology Corps
Kind of experiment: Radiolabeled kinase assay (Reaction Biology). Type of experiment: biochemical. The method, then: as §3

Experiment [4] has as its system BRAF^WT : Cullin-2 association (NIH3T3 cells). Nature of the experiment: V5-BRAF immunoprecipitation, Cullin 2 association. To be noted: MEK inhibitor (1 µM cobimetinib, 2 h) pretreated NIH3T3 cells. Format: cell-based. As for the experimental part:
Doxycycline-induced NIH3T3 cells or 293 T-Rex cells that express indicated BRAF isoform were seeded in 10 cm dishes overnight. […] Cells were then placed on ice, washed with ice-cold 1X PBS, and lysed in 500 µL modified 1X lysis buffer (50 mM Tris-HCl, pH 7.4, 0.15 M NaCl, 1 mM EDTA, 1% NP40, 10% glycerol) containing 5 mM 1,10-phenanthroline monohydrate, 10 mM N-ethylmaleimide, 20 µM PR-619, and 1X protease inhibitor cocktail (Roche). Lysates were spun down at 14,000 × g at 4 °C for 10 min. Equal amounts of lysate was aliquoted onto 20 µL (bed volume) of anti-V5-beads (Sigma, A7345). V5-containing proteins were immunoprecipitated from lysates for 2 h at 4 °C with gentle rotation, after which samples were spun down at 6000 × g at 4 °C for 2 min and the beads were washed 4 times with DPBS. Beads were resuspended in 1X lithium dodecyl sulfate (LDS) sample buffer containing 5% 2-mercaptoethanol (ß-ME). Immunoprecipitated protein was eluted off the beads by heating at 95 °C for 5 min and the supernatant was run on an SDS-PAGE gel and evaluated for the presence of immunoprecipitated V5-tagged proteins, as well as Cullin 2. Input refers to the normalized input lysate loaded onto V5-sepharose beads.

Experiment [5] deals with SK-MEL-239 C4 cells (BRAF^WT/BRAF-p61^V600E). Kind of experiment: Cell proliferation (MTS) assay. Type of experiment: cell-based. To be noted: 5 days.
Experiment [6] concerns BRAF (SK-MEL-239 cells, heterozygous BRAF^V600E). Kind of experiment: BRAF degradation by immunoblot in SK-MEL-239 cells. Format: cell-based. The method, then: as §1, §2
Experiment [7] has as its target T12, BRAF-p61^V600E (SK-MEL-239 C4 cells) (Homo sapiens, UniProt P15056+P40337, DEL169-380/V600E).
T12 construct: endogenous in cells; host or cells: SK-MEL-239 C4; HCC-364 vr1
Nature of the experiment: BRAF degradation by immunoblot in SK-MEL-239 C4 cells. Type of experiment: cell-based. As to conditions: p61 dimer. As for the experimental part:
as §1, §2

Experiment [8] has as its target T13, BRAF-p61^V600E (SK-MEL-239 C4 cells) (Homo sapiens, UniProt P15056, DEL169-380/V600E).
T13 construct: endogenous in cells; host or cells: SK-MEL-239 C4; HCC-364 vr1
The description is as above. Format: cell-based. As to conditions: p61 dimer. The method, then:
as §1, §2

Experiment [9] relates to H1666 cells (Class 3, BRAF^G466V). Nature of the experiment: Cell proliferation (MTS) assay. As to conditions: 5 days. Type of experiment: cell-based.

T1 sequence (P15056 whole entry G469A): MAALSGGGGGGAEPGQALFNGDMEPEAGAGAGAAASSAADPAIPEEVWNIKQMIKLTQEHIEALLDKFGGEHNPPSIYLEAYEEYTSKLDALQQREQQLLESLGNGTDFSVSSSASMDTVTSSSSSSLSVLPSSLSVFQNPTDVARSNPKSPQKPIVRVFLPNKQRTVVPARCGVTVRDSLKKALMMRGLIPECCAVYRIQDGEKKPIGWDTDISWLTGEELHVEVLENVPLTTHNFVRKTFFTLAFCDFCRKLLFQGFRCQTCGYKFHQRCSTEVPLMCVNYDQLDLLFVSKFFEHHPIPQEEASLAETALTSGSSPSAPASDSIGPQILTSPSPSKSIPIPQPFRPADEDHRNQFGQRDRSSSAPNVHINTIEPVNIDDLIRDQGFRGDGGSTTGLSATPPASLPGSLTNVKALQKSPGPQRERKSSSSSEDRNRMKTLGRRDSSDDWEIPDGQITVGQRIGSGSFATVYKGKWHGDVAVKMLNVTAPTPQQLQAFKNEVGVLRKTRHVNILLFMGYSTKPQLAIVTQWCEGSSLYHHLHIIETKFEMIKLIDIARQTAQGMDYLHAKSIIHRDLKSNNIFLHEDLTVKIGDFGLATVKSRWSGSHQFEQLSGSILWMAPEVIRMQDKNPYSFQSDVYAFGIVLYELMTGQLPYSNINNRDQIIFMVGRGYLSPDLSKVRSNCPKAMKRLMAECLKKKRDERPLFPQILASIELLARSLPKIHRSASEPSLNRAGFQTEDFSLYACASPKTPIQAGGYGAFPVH
T2 sequence (P15056 whole entry G466V): as the sequence (P15056 whole entry G469A) above, with G466V, A469G counted along it
T11 sequence (P15056 whole entry G469A): as the sequence (P15056 whole entry G469A) above
Chain of CRAF (P04049 whole entry): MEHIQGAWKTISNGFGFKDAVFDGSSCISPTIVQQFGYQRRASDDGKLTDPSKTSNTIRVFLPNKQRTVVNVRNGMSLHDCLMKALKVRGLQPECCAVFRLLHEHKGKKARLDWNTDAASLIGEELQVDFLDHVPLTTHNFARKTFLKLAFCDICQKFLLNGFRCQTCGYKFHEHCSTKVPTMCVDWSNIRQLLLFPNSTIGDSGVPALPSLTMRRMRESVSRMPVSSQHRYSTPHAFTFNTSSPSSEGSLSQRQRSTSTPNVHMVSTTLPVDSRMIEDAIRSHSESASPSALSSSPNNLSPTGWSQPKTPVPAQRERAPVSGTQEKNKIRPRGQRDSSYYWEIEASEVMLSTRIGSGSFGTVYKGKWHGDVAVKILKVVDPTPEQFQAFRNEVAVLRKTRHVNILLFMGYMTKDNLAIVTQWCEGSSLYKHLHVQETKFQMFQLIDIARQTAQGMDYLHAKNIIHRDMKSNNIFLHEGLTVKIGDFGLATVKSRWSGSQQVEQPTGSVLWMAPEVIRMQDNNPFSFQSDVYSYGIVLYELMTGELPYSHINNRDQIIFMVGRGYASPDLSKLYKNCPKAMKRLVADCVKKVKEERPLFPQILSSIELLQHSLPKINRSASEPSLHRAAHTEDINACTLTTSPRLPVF
T10 sequence (P15056 whole entry V600K): as the sequence (P15056 whole entry G469A) above, with A469G, V600K counted along it
T4 sequence (P15056 whole entry V600D): as the sequence (P15056 whole entry G469A) above, with A469G, V600D counted along it
T7 sequence (P15056 whole entry K601E): as the sequence (P15056 whole entry G469A) above, with A469G, K601E counted along it
T6 sequence (P15056 whole entry V600A): as the sequence (P15056 whole entry G469A) above, with A469G, V600A counted along it
T8 sequence (P15056 whole entry L597V): as the sequence (P15056 whole entry G469A) above, with A469G, L597V counted along it
Chain of BRAF V600E (P15056 whole entry V600E): as the sequence (P15056 whole entry G469A) above, with A469G, V600E counted along it
T5 sequence (P10398 whole entry): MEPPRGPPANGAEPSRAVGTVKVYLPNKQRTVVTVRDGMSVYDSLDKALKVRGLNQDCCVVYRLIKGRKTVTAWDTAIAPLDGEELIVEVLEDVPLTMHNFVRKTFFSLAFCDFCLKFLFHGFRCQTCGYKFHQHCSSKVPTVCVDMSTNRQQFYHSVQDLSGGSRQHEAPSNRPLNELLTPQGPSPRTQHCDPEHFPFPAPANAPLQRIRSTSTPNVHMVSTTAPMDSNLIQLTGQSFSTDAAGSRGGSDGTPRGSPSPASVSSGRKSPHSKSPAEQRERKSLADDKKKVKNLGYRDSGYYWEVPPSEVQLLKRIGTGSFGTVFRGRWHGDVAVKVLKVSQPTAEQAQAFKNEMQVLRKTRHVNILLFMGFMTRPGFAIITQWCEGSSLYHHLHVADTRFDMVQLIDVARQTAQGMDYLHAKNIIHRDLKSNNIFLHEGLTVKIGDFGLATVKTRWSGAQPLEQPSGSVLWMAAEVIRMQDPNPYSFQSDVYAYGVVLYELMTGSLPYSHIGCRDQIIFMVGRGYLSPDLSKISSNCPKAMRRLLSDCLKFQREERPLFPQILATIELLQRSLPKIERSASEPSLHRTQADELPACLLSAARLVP
T3 sequence (P15056 whole entry): as the sequence (P15056 whole entry G469A) above, with A469G counted along it
T9 sequence (P15056 whole entry): as the sequence (P15056 whole entry G469A) above, with A469G counted along it
T13 sequence (P15056 with tags, fused parts or gaps DEL169-380/V600E): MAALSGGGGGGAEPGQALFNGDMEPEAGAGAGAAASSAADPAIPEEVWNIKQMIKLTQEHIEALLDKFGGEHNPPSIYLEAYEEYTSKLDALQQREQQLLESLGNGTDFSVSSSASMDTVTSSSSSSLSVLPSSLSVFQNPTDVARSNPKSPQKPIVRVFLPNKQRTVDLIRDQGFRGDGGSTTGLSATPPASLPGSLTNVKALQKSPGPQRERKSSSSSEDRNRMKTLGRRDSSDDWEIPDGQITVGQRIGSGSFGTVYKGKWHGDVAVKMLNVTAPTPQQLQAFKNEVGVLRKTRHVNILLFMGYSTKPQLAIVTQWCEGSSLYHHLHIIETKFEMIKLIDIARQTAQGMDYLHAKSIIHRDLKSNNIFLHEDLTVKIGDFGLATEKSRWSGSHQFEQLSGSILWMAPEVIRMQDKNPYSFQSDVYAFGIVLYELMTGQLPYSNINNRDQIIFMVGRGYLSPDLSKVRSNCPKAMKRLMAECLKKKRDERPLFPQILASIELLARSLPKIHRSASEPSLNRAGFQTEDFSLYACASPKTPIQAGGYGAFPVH
T13 sequence (P40337 whole entry, stated change not applied, further chain): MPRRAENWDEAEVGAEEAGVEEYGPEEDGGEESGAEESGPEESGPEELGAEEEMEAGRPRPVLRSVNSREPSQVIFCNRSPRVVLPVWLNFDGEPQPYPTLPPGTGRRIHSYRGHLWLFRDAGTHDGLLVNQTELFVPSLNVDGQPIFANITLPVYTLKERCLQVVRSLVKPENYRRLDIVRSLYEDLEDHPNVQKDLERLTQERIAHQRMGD
T13 sequence (Q15370 whole entry partner): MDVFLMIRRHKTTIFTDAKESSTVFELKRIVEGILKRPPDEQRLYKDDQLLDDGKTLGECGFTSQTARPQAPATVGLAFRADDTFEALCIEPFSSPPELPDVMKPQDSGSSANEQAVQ
T13 sequence (Q15369 whole entry partner): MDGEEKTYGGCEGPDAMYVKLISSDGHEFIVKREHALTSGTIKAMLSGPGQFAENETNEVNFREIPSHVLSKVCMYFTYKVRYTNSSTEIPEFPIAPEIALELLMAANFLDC
T12 sequence (P15056 with tags, fused parts or gaps DEL169-380/V600E): as the sequence (P15056 with tags, fused parts or gaps DEL169-380/V600E) above
T12 sequence (P40337 whole entry, stated change not applied): as the sequence (P40337 whole entry, stated change not applied, further chain) above
T12 sequence (Q15370 whole entry partner): as the sequence (Q15370 whole entry partner) above
T12 sequence (Q15369 whole entry partner): as the sequence (Q15369 whole entry partner) above

Take `CCCS(=O)(=O)Nc1ccc(F)c(C(=O)c2c[nH]c3ncc(-c4ccc(N5CCN(CC(=O)NC(C(=O)N6CC(O)CC6C(=O)NCc6ccc(-c7scnc7C)cc6)C(C)(C)C)CC5)cc4)cc23)c1F` (centres unmarked) [SJF-0628]: the DC50 in experiment [1] worked out at 15 nM; in experiment [2] it was 23 nM; in experiment [8] it was 72 nM. The Dmax in experiment [1] was more than 95%; in experiment [2], more than 90%; in [7], more than 80%. The EC50 in experiment [3] stood at 45 ± 1.11 nM; in experiment [5] (120 h, read-out: EC50, cell growth), 218 nM. Moreover, at BRAF^WT (OVCAR-8 cells), the “BRAF^WT degradation” value is on record as “minor BRAF^WT degradation”. Further, the IC50 turned out to be 24.4 nM on BRAF V600E; 2.68 nM at BRAF (V600D); 0.27 nM on ARAF; 37.6 nM against CRAF; 1.06 nM against BRAF (V600A); 7.84 nM against BRAF (K601E). The half-inhibitory concentration (IC50) against BRAF (L597V) is 16 nM; at BRAF (BRAF^WT), 5.8 nM; against BRAF (V600K), 0.49 nM; against BRAF (G469A), 0.98 nM. Moreover, the “increase in PROTAC-induced Cullin-2 association with BRAF^WT” value in experiment [4] is reported as 4 fold. Also, in [5], the “decrease in cell growth” value was ~ 80%. For the same compound, in experiment [6], the BRAF degradation entry is reported as “minimal BRAF degradation”. In experiment [9], this compound displayed a cell growth inhibition of 65%.
